Assay results published in patent EP4763845A1, “CYANO AROMATIC RING DERIVATIVE AND PHARMACEUTICAL USE THEREOF” (Haisco Pharmaceutical Group Co., Ltd., priority 2023, dated 2025).
Read-outs that look alike come from different tables or passages of the source.

How the values were obtained:
AR protein = target: T1, AR protein (Homo sapiens, UniProt P10275); test: Detection of AR degradation in VCaP cells (automated western blot); assay type: cell-based; details: degradation of AR protein in VCaP cells, 24 hours incubation
T1 construct: VCap is a human prostate cancer cell line purchased from ATCC; host or cells: VCaP human prostate cancer cells
T1 sequence (P10275 1-920): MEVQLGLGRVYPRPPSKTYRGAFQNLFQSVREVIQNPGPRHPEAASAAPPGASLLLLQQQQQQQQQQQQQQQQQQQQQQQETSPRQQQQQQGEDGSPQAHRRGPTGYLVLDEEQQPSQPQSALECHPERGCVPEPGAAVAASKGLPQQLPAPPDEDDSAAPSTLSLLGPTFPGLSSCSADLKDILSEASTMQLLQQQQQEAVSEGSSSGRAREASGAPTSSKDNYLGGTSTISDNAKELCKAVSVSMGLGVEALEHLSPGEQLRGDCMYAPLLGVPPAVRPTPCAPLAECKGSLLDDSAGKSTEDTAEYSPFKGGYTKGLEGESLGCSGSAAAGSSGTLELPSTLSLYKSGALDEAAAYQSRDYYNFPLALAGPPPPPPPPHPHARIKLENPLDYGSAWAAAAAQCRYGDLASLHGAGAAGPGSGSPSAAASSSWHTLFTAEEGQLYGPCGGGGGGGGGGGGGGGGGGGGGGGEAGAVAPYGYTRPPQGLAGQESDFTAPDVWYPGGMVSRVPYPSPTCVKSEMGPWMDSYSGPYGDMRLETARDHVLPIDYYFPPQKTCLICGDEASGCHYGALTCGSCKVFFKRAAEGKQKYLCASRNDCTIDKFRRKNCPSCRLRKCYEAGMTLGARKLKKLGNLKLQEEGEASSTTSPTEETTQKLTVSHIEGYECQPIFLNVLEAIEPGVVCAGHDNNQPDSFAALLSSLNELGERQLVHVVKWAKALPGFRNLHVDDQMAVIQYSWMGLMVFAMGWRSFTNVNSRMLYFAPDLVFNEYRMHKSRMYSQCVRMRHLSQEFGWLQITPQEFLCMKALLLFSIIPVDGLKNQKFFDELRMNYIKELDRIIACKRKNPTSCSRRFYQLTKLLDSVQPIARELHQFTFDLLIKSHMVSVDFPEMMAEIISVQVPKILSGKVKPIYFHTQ
Summary of the method: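 VCaP cells (5 × 10^5/well) were treated with compounds at various concentrations for 24 h at 37°C. Lysate AR level was quantified by automated capillary western blot, normalised to β-actin and expressed relative to solvent control. DC50 came from four-parameter nonlinear regression; degradation rate = 100 − AR%.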

[1] = tested on: Human CD34+ Hematopoietic stem cells; test: Human CD34+ hematopoietic stem cell proliferation inhibition experiment; assay type: cell-based; details: 168 h, inhibitory activity against the proliferation of CD34+ hematopoietic stem cells, 7 days
Description: Human CD34+ Hematopoietic stem cells (TPCS, Cat.hmPB34-P-2CW) are CD34-positive stem cells obtained from human PBMCs through immunomagnetic bead sorting. The culture conditions are as follows: DPBS (Gibco, Cat.14190-144) +StemSpan SFEM II ([…], Cat.9655) +1X StemSpan CD34+ Expansion Supplement ([…], Cat.2691). First, 40 nL of DMSO, the positive reference compound Talazoparib, or the test compounds were respectively added to a 384-well plate (Corning, Cat. 3764). Then, a cell suspension was added at 400 cells per well in 40 µL of medium, resulting in final concentrations of 0.1% DMSO, 3 µM Talazoparib, or various concentrations of the compounds in each well. The plate was centrifuged at room temperature at 1000 rpm for 1 minute, followed by incubation for 7 days in a 37°C, 5% CO2 incubator. Following incubation, 20 µL of CellTiter-Glo Reagent (Promega, Cat. G7573) was directly added to each well, and the plate was centrifuged at room temperature at 1000 rpm for 1 minute, followed by incubation for 20 minutes in the dark. Following incubation, the chemiluminescent signal (CFU) was read and recorded using an Envision multimode microplate reader (PerkinElmer, Cat. 2104). The cell proliferation inhibition rate at various compound concentrations was calculated according to Equation (3), where CFUhigh control represents the average signal value of the DMSO group, CFUlow control represents the average signal value of the Talazoparib group, and CFUcompound represents the average signal value of the compound-treated group. The processed data obtained from Equation (3) were analysed using XLfit or GraphPad Prism software, and a four-parameter curve fitting model was applied to calculate the compound concentration corresponding to a 50% inhibition rate, i.e., the IC50 value. Inhibition% = (CFUhigh control−CFUcompound)/(CFUhigh control−CFUlow control) × 100% [formula]

hERG potassium channel = target: T2, hERG potassium channel (Homo sapiens, UniProt Q12809); test: hERG potassium ion channel test (manual patch-clamp, CHO cells); assay type: cell-based; details: chinese hamster; inhibitory activity against hERG potassium channel current, CHO cells, whole cell patch-clamp; read-out: IC50
T2 construct: expressed in transfected cells; host or cells: CHO cells stably expressing hERG
From the text: Experimental platform: Electrophysiological manual patch-clamp system
Cell line: Chinese hamster ovary (CHO) cell lines stably expressing hERG potassium ion channel
Experimental method: In Chinese Hamster Ovary (CHO) cells stably expressing hERG potassium channel, whole cell patch-clamp technique was used to record hERG potassium channel current at room temperature. The glass microelectrode was made of a glass electrode blank (BF150-86-10, Sutter) by a puller. The tip resistance after filling the liquid in the electrode was about 2-5 MΩ. The glass microelectrode can be connected to the patch-clamp amplifier by inserting the glass microelectrode into an amplifier probe. The clamping voltage and data recording were controlled and recorded by the pClamp 10 software through a computer. The sampling frequency was 10 kHz, and the filtering frequency was 2 kHz. After the whole cell records were obtained, the cells were clamped at -80 mV, and the step voltage that induced the hERG potassium current (I hERG) was depolarised from -80 mV to +20 mV for 2 s, then repolarised to -50 mV, and returned to -80 mV after 1 s. This voltage stimulation was given every 10 s, and the administration process was started after the hERG potassium current was confirmed to be stable (at least 1 minute). The compound was administered for at least 1 minute at each test concentration, and at least 2 cells (n ≥ 2) were tested at each concentration.
Data processing: Data analysis processing was carried out by using pClamp 10, GraphPad Prism 5 and Excel software.
Compound IC50 was calculated using GraphPad Prism 5 software by fitting according to the following equation: Y = Bottom + (Top−Bottom)/(1+10^(∧)((LogIC50−X)*HillSlope)) [formula] where X represents the Log value of the tested concentration of the test sample, Y represents the inhibition percentage at the corresponding concentration, and Bottom and Top represent the minimum and maximum inhibition percentage, respectively.

VCaP cells = test: VCaP cell proliferation inhibition experiment (CellTiter-Glo); assay type: cell-based; details: Homo sapiens, 168 h
Description: After centrifugation and resuspension, viable cell counting was performed using a Vi-Cell XR cell counter. […] Then, 180 µl of the cell suspension was added per well to a 96-well cell culture plate at a cell density of 7,500 cells/well. At the time of seeding, T0 wells were also prepared. The following day, R1881 at a final concentration of 0.1 nM and compounds at various concentrations were added. The plate was placed back into the incubator and cultured for an additional 7 days. At the time of compound addition, the T0 plate was measured using the CellTiter-Glo (CTG) kit (Promega, Cat. No. G7572) and recorded as RLU0. Following incubation, 75 µl of pre-thawed and room temperature-equilibrated CellTiter-Glo solution was added to each well. […] The results were processed according to Equation (2). […] Growth% = (RLUcompound−RLU0)/(RLUcontrol−RLU0) × 100% [formula]

[2] = Pharmacokinetic test in mice; assay type: in vivo, ICR mice; details: i.g. (5 mg/kg), Vehicle 3: 5% DMSO+5% Solutol+90% (20% SBE-β-CD); for AUC(0-t): mouse, plasma, po
Description: (§1) Experimental objective: In this experiment, a single dose of the test compound was administered to ICR mice via intravenous administration and intragastric gavage, and the concentration of the test compound in plasma of the mice was measured to evaluate the pharmacokinetic profile of the test compound in the mice.
Experimental animals: Male ICR mice, 6 mice/compound, purchased from Chengdu Ddossy Experimental Animals Co., Ltd.
(§2) Experimental method: On the day of the experiment, 6 SD mice were randomly grouped according to their body weights. The animals were fasted with water available for 12 to 14 h one day before the administration, and were fed 4 h after the administration. Table 6 Administration information of pharmacokinetic test in mice
Sampling: Before and after the administration, 0.15 mL of blood was taken from the orbits under isoflurane anaesthesia, and placed in an EDTAK2 centrifuge tube. Centrifugation was carried out at 5000 rpm at 4°C for 10 min, and the plasma was collected.
The plasma collection time points for PO groups were 0, 5 min, 15 min, 30 min, 1 h, 2 h, 4 h, 7 h, 24 h, and 48 h.
The plasma collection time points for IV groups were 0, 5 min, 15 min, 30 min, 1 h, 2 h, 4 h, 7 h, 24 h, and 48 h.
Before analysis and detection, all samples were stored at -60°C. The samples were analysed quantitatively by LC-MS/MS. Table 7 Pharmacokinetic parameters of compounds of the present invention in plasma of mice

[3] = Pharmacokinetic test in rats; assay type: in vivo, SD rats; details: i.g. (5 mg/kg), vehicle 5% DMSO+5% Solutol+90% (20% SBE-β-CD); for AUC(0-t): rat, plasma, po
Description: as §1, with “SD rats” for “ICR mice”, “rats” for “mice”, “rats.” for “mice.”
Experimental animals: Male SD rats, 200-220 g, 6 rats/compound, purchased from Chengdu Ddossy Experimental Animals Co., Ltd.
as §2, with “SD rats” for “SD mice”, “Table 3” for “Table 6”, “in rats” for “in mice”
Sampling: Before and after the administration, 0.1 mL of blood was taken from the orbits under isoflurane anaesthesia, and placed in an EDTAK2 centrifuge tube. Centrifugation was carried out at 5000 rpm at 4°C for 10 min, and the plasma was collected.
The plasma collection time points for IV&PO groups were 0, 5 min, 15 min, 30 min, 1 h, 2 h, 4 h, 7 h, 24 h, and 48 h.
Before analysis and detection, all samples were stored at -60°C. The samples were analysed quantitatively by LC-MS/MS. Table 4 Pharmacokinetic parameters of compounds of the present invention in plasma of rats

T2 sequence (Q12809 whole entry): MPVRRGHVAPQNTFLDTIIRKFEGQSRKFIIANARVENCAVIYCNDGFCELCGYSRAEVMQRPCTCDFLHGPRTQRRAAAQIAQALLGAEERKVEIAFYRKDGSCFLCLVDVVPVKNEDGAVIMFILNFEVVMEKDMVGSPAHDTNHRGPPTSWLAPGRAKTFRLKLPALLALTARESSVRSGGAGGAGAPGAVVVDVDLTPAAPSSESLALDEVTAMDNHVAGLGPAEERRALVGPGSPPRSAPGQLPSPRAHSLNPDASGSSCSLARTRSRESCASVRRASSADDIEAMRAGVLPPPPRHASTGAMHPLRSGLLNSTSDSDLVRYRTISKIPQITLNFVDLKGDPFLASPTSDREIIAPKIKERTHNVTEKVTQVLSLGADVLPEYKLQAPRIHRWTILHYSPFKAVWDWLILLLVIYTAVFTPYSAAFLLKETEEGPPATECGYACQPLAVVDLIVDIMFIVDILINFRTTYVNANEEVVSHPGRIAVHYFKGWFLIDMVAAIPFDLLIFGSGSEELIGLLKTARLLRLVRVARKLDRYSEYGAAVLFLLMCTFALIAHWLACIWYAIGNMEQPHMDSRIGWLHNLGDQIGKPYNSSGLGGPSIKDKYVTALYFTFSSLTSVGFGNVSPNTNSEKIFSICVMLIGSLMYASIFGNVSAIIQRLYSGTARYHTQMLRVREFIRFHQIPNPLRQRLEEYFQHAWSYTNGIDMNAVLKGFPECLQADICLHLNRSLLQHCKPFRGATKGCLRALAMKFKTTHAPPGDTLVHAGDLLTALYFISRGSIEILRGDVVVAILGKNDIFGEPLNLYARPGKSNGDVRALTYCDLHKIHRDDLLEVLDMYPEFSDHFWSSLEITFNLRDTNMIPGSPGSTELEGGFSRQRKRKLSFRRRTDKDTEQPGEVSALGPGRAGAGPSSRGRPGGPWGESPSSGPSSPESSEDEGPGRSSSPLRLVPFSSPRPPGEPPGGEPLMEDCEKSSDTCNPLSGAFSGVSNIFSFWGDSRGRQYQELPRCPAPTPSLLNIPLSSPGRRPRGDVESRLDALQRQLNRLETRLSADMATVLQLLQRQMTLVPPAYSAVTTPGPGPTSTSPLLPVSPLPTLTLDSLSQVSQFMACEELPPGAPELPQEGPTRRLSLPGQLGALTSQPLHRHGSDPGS

SMILES: COc1cc(O[C@H]2C(C)(C)[C@H](NC(=O)c3ccc(N4CCC(CN5CCN6c7cc(F)c(C(=O)N[C@H]8CCC(=O)NC8=O)cc7CC[C@@H]6C5)CC4)cc3)C2(C)C)ccc1C#N [Compound 11]
- DC50 (AR protein; read-out: DC50): < 100 nM
- IC50 [1]: > 10000 nM
- IC50 (hERG potassium channel): > 40000 nM
- GI50 (VCaP cells): < 300 nM

SMILES: COc1cc(O[C@H]2C(C)(C)[C@H](NC(=O)c3ccc(N4CCC5(CC4)CC(CN4CCN6c7cc(F)c(C(=O)N[C@H]8CCC(=O)NC8=O)cc7CC[C@H]6C4)C5)cc3)C2(C)C)ccc1C#N [Trifluoroacetate of compound 7]
- DC50 (AR protein; read-out: DC50): < 100 nM
- IC50 [1]: > 10000 nM

SMILES: COc1cc(O[C@H]2C(C)(C)[C@H](NC(=O)c3ccc(N4CCC(CN5CCN6c7cc(F)c(C8CCC(=O)NC8=O)cc7CC[C@@H]6C5)CC4)nn3)C2(C)C)ccc1C#N (stereo partly drawn) [Trifluoroacetate of compound 60]
- DC50 (AR protein): < 100 nM
- F [2]: 84.2±8.4%
- AUC(0-t) [2]: 41600 ± 4140 ng·h/mL
- F [3]: 57.5±3.0%
- AUC(0-t) [3]: 6600 ± 349 ng·h/mL
- GI50 (VCaP cells): < 300 nM

SMILES: COc1cc(O[C@H]2C(C)(C)[C@H](NC(=O)c3ccc(N4CCC(CN5CCN6c7cc(F)c(C8CCC(=O)NC8=O)cc7CC[C@H]6C5)CC4)nn3)C2(C)C)ccc1C#N (stereo partly drawn) [Trifluoroacetate of compound 61]
- DC50 (AR protein; read-out: DC50): < 100 nM
- F [2]: 98.8±12%
- AUC(0-t) [2]: 28500 ± 3460 ng·h/mL
- F [3]: 43.5+14%
- AUC(0-t) [3]: 5460 ng·h/mL
- GI50 (VCaP cells): < 300 nM
